Laboratory results reported in ChEMBL document CHEMBL1150441.
Active and inactive are the calls of the source. No cut-off for these calls is given here.

Tests used:
[1] = target: T1, Estrogen receptor (Rattus norvegicus) (UniProt P06211+Q62986); assay: Effect on uterine weight as tissue specific estrogen agonist assay in ovariectomized rat model: significant increase at <=10 mg/kg dose; type: functional, organism-based; details: filed as agonist
[2] = target: T1, Estrogen receptor (Rattus norvegicus); assay: Effect on serum cholesterol level as tissue specific estrogen agonist assay in ovariectomized rat model: significant decrease at <=10 mg/kg dose; type: functional, organism-based; details: filed as agonist
Rattus norvegicus [3] = organism: Rattus norvegicus; assay: Effect on uterine weight as tissue specific estrogen agonist assay in ovariectomized rat model: Not significant; type: functional, organism-based
Rattus norvegicus [4] = assay: Effect on uterine weight as tissue specific estrogen agonist assay in ovariectomized rat model at 0.1 mg/kg dose: Not significant; type: functional, organism-based; parameters: dose 0.1 mg/kg
Rattus norvegicus [5] = organism: Rattus norvegicus; assay: Effect on serum cholesterol level as tissue specific estrogen agonist assay in ovariectomized rat model: Not significant; type: functional, organism-based
[6] = target: T1, Estrogen receptor (Rattus norvegicus); assay: Effect on serum cholesterol level as tissue specific estrogen agonist assay in ovariectomized rat model: significant decrease at <10 mg/kg dose; type: functional, organism-based; details: filed as agonist
MCF7 = assay: Inhibition of MCF-7 cell proliferation stimulated by 10e-12 M estradiol: Not active; type: functional, cell-based; details: Homo sapiens

CC(C)c1sc2cc(O)ccc2c1Cc1ccc(OCCN2CCCCC2)cc1 was tested, and the Activity [1] was “Agonist” and the Activity [2] was “Agonist”.

For Cc1sc2cc(O)ccc2c1C(=O)c1ccc(OCCN2CCCCC2)cc1, the Activity (Rattus norvegicus [3]) was “inactive”.

Oc1ccc2c(Cc3ccc(OCCN4CCCCC4)cc3)c([C@H]3CC[C@H](O)CC3)sc2c1 was tested, and the Activity (Rattus norvegicus [4]) was “inactive”.

Oc1ccc2c(Cc3ccc(OCCN4CCCCC4)cc3)c(C3CCCC3)sc2c1 was tested, and the Activity (Rattus norvegicus [4]) was “inactive” and the Activity [2] was “Agonist”.

With O=C(c1ccc(OCCN2CCCCC2)cc1)c1c(C2CCCC2)sc2cc(O)ccc12 the Activity (Rattus norvegicus [4]) was “inactive”.

For CC(C)c1sc2cc(O)ccc2c1C(=O)c1ccc(OCCN2CCCCC2)cc1, the Activity (Rattus norvegicus [4]) was “inactive”.

In the case of Oc1ccc2c(C(O)c3ccc(OCCN4CCCCC4)cc3)c(C3CCCC3)sc2c1 (configuration not stated), the Activity (Rattus norvegicus [5]) was “inactive”.

With Oc1ccc2c(Cc3ccc(OCCN4CCCCC4)cc3)c(C3CCCCC3)sc2c1 the Activity [6] was “Agonist” and the Activity [1] was “Agonist”.

In the case of Cc1sc2cc(O)ccc2c1Cc1ccc(OCCN2CCCCC2)cc1, the Activity (Rattus norvegicus [3]) was “inactive” and the Activity (Rattus norvegicus [5]) was “inactive”.

For CCc1sc2cc(O)ccc2c1Cc1ccc(OCCN2CCCCC2)cc1, the Activity [1] was “Agonist” and the Activity [2] was “Agonist”.

With C[C@]12CC[C@@H]3c4ccc(O)cc4CC[C@H]3[C@@H]1CC[C@@H]2O the Dose (MCF7) was “inactive”.

For CCc1sc2cc(O)ccc2c1C(=O)c1ccc(OCCN2CCCCC2)cc1, the Activity (Rattus norvegicus [3]) was “inactive”.
